One experiment concerns the target T1, human COX-2 (Homo sapiens, UniProt P35354).
T1 construct: human COX-2 (143.98.2 from human osteosarcoma), respectively; endogenous in cells; host or cells: 143.98.2 (human osteosarcoma)
T1 sequence (P35354 18-604): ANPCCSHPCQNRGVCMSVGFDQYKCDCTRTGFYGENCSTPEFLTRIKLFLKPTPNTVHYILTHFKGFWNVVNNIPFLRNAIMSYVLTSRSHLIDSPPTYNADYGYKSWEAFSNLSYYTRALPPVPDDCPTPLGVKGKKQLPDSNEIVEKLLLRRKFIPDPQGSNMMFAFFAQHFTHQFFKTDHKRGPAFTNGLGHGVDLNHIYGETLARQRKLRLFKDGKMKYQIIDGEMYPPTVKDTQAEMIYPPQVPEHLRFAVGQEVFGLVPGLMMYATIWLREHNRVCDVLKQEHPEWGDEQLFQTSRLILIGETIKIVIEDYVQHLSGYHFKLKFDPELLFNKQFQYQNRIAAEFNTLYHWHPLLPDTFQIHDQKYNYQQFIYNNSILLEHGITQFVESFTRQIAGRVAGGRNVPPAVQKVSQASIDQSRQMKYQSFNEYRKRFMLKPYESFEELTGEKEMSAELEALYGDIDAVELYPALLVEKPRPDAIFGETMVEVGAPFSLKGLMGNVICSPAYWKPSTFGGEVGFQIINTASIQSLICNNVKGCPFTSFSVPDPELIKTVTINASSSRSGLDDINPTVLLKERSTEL
Briefly: Inhibition of COX-2 activity (PGE2 production after arachidonic acid) in 143.98.2 osteosarcoma cells. Type of experiment: cell-based. To be noted: 0.1 μM test compound, PGE2 production after 10 μM arachidonic acid. How it is done:
(§1) Inhibition of cyclooxygenase-1 (COX-1) and cyclooxygenase-2 (COX-2) Activity in Human Cell Lines
(§2) The inhibition of COX-1 and COX-2 is determined by assessing the PGE2 production after stimulation with arachidonic acid in cell lines expressing human COX-1 (U-937 from human histiocitic lymphoma) and human COX-2 (143.98.2 from human osteosarcoma), respectively.
(§3) The osteosarcoma-derived cells were cultured in 1 mL of DMEM culture medium supplemented with 10% fetal calf serum, in 24-well multidishes until confluence. U-937 cells were cultured in RPMI medium supplemented with 10% fetal calf serum in flasks.
(§4) To evaluate COX-2 activity, the medium was removed and replaced with Hepes-buffered saline solution (HBSS) without Ca^2+/Mg^2+ (2×10^5 cells/well). To evaluate COX-1 activity, the medium was removed and U-937 cells were resuspended to a final density of 3×10^6 cells/mL in HBSS without Ca^2+/Mg^2+ (1 mL/well, in 24-well multidishes). 1 μL of a solution of the test compound dissolved in DMSO or vehicle was added, and the samples were incubated for 15 min at 37° C. (5% CO2 and 95% humidity). Arachidonic acid was added (final concentration: 10 μM) and the samples were incubated for 10 min more. Next the reactions were quenched by adding indomethacin (8 mM, 30 μL). The amount of PGE2 in the supernatant was determined by specific enzymatic immunoassay (Kit Prostaglandin E2, Biotrak EIA system RPN222, Amersham Pharmacia Biotech). All the assays were performed in triplicate.
(§5) The results obtained with representative compounds of the present invention are shown in the following table, where the % of inhibition of COX-1 and COX-2 activity at a concentration of 0.1 μM of test compound are reported.

Another experiment concerns the target T2, human COX-1 (Homo sapiens, UniProt P23219).
T2 construct: cell lines expressing human COX-1 (U-937 from human histiocitic lymphoma); endogenous in cells; host or cells: U-937 (human histiocytic lymphoma)
Description: Inhibition of COX-1 activity (PGE2 production after arachidonic acid) in U-937 cells. It is filed as cell-based. The note with it: 0.1 μM test compound, PGE2 production after 10 μM arachidonic acid. The method, then: as §1, §2, §3, §4, §5

The record followed here is US20030114456A1, “Novel heterocylic compounds with anti-inflamatory activity” (priority 2000, published 2003).

Structures can show the parent of a compound that is named as a salt.

T2 sequence (P23219 24-599): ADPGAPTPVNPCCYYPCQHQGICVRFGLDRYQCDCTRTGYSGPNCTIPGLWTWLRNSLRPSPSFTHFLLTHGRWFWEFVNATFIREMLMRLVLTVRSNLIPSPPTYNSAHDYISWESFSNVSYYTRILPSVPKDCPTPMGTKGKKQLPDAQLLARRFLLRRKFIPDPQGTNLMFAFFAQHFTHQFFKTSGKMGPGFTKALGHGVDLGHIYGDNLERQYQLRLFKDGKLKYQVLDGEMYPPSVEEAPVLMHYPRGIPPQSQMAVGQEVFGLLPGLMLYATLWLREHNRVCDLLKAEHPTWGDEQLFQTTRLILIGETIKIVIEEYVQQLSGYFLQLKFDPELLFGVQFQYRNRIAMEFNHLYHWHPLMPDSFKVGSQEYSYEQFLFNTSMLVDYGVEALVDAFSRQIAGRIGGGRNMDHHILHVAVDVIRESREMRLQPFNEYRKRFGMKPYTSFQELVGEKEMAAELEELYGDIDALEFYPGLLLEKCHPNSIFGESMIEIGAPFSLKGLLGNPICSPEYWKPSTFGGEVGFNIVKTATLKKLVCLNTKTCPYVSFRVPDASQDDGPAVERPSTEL

As usually defined, the inhibition is the change of the read-out against control, counted positive when it falls. For `CS(=O)(=O)c1ccc(-n2cnc(Cl)c2-c2ccc(N3CC=CC3=O)cc2)cc1` [Example 8, 4-Chloro-1-(4-methylsulfonylphenyl)-5-[4-(2-oxo-3-pyrrolin-1-yl)phenyl]imidazole], the results for the inhibition at 0.1 µM against human COX-2 and on human COX-1 were 76% and 0%, respectively.

With `CS(=O)(=O)c1ccc(C2=C(c3ccc(N4CCCC4)c(Cl)c3)C(=O)OC2)cc1` [Example 16, 3-[3-Chloro-4-(1-pyrrolidinyl)phenyl]-4-(4-methylsulfonylphenyl)-5H-furan-2-one], the inhibition at 0.1 µM against human COX-2 was found to be 93%; against human COX-1, 0%.

For `CS(=O)(=O)c1ccc(C2=C(c3ccc(N4CCCC4)cc3)C(=O)OC2)cc1` [Example 15, 4-(4-Methylsulfonylphenyl)-3-[4-(1-pyrrolidinyl)phenyl]-5H-furan-2-one], the inhibition at 0.1 µM was determined as 81% against human COX-2 and 17% against human COX-1.

Regarding `CC1CCCN1c1ccc(-c2c(Cl)ncn2-c2ccc(S(C)(=O)=O)cc2)cc1` (stereo not shown) [Example 4, 4-Chloro-5-[4-(2-methylpyrrolidin-1-yl)phenyl]-1-(4-methylsulfonylphenyl)imidazole], the results for the inhibition at 0.1 µM against human COX-2 and on human COX-1 were 72% and 0%, respectively.

Consider `CS(=O)(=O)c1ccc(-n2cnc(Cl)c2-c2ccc(N3CCCC3=O)cc2)cc1` [Example 10, 4-Chloro-1-(4-methylsulfonylphenyl)-5-[4-(2-oxopyrrolidin-1-yl)phenyl]imidazole], for which the results for the inhibition at 0.1 µM at human COX-2 and against human COX-1 were 61% and 0%, respectively.

For `CS(=O)(=O)c1ccc(-n2cnc(Cl)c2-c2ccc(N3C(=O)CCC3=O)cc2)cc1` [Example 7, 4-Chloro-1-(4-methylsulfonylphenyl)-5-[4-(2,5-dioxopyrrolidin-1-yl)phenyl]imidazole], the values for the inhibition at 0.1 µM against human COX-2 and against human COX-1 were 72% and 0%, respectively.

Take `CS(=O)(=O)c1ccc(C2=C(c3ccc(N4CCCC4)nc3)C(=O)OC2)cc1` [Example 17, 4-(4-Methylsulfonylphenyl)-3-[6-(1-pyrrolidinyl)-3-pyridyl]-5H-furan-2-one]: the inhibition at 0.1 µM at human COX-2 stood at 81%; against human COX-1 it was 0%.

Take `CS(=O)(=O)c1ccc(-n2cnc(Cl)c2-c2ccc(N3CCCC3)c(Cl)c2)cc1` [Example 6, 4-Chloro-5-[3-chloro-4-(1-pyrrolidinyl)phenyl]-1-(4-methylsulfonylphenyl)imidazole]: the results for the inhibition at 0.1 µM at human COX-2 and against human COX-1 were 89% and 0%, respectively.

`CS(=O)(=O)c1ccc(C2=C(c3ccc(N4CC=CC4=O)cc3)C(=O)OC2)cc1` [Example 14, 4-(4-Methylsulfonylphenyl)-3-[4-(2-oxo-3-pyrrolin-1-yl)phenyl]-5H-furan-2-one]: the inhibition at 0.1 µM on human COX-2 is 49%; against human COX-1, 0%.

Take `CS(=O)(=O)c1ccc(-n2cnc(Cl)c2-c2ccc(N3CCCC3)nc2)cc1` [Example 12, 4-Chloro-1-(4-methylsulfonylphenyl)-5-[6-(1-pyrrolidinyl)-3-pyridyl]imidazole]: the inhibition at 0.1 µM against human COX-2 worked out at 79%; against human COX-1 it was 0%.

For `CS(=O)(=O)c1ccc(-n2cnc(Cl)c2-c2ccc(N3CCC(O)C3)cc2)cc1` (stereo not shown) [Example 3, 4-Chloro-5-[4-(3-hydroxypyrrolidin-1-yl)phenyl]-1-(4-methylsulfonylphenyl)imidazole], the inhibition at 0.1 µM was 75% against human COX-2 and 11% against human COX-1.

Consider `CS(=O)(=O)c1ccc(-n2cnc(Cl)c2-c2ccc(N3CCOC3=O)cc2)cc1` [Example 9, 4-Chloro-1-(4-methylsulfonylphenyl)-5-[4-(2-oxooxazolidin-3-yl)phenyl]imidazole], for which the results for the inhibition at 0.1 µM against human COX-2 and on human COX-1 were 72% and 0%, respectively.

Regarding `NS(=O)(=O)c1ccc(-n2cnc(Cl)c2-c2ccc(N3CCCC3)cc2)cc1` [Example 5, 4-[4-Chloro-5-[4-(1-pyrrolidinyl)phenyl]imidazol-1-yl]benzenesulfonamide, hydrochloride], the inhibition at 0.1 µM on human COX-2 was 70%; against human COX-1, 0%.

For the molecule `CS(=O)(=O)c1ccc(-n2cnc(Cl)c2-c2ccc(N3CCCC3)cc2)cc1` [Example 1, 4-Chloro-1-(4-methylsulfonylphenyl)-5-[4-(1-pyrrolidinyl)phenyl]imidazole], the values for the inhibition at 0.1 µM against human COX-2 and at human COX-1 were 61% and 0%, respectively.
